Entries after “also recorded” stand apart in the source; their conditions may differ.
Assays:
mCMV [1] = experiment: Plaque size assay; conditions: varying drug concentrations, measured 5 dpi
hCMV [2] = experiment: Quantification of hCMV-GFP infection in normal human dermal fibroblasts and U-373 glioblastoma cells; conditions: pre-treatment prior to hCMV-GFP inoculation
mCMV [3] = experiment: Three-chamber test of sociability and social novelty; type: in vivo, mouse; conditions: 5 weeks of age
Source text: Sociability and preference for social novelty were investigated at 5 weeks of age in a three-compartment apparatus (Yang, et al., 2011, Curr. Protoc. Neurosci. Chapter 8:Unit 8.26). Initially, test and control animals were allowed to explore the apparatus freely for a 10-min period (habituation). For the social approach paradigm, an unfamiliar conspecific (same sex, similar age and weight) animal was placed into one of the side compartments and restrained by a small wire object (‘social cage’). The compartment on the other side contained an empty wire object (‘empty cage’). The test subject was then released into the center compartment and allowed to explore the three-compartment apparatus freely for 10 min. Behavior was videotaped and assessed for the time(s) that the test subject spent in the three compartments and in close proximity to the social and empty cages. For the social-novelty paradigm, another unfamiliar conspecific animal was placed in the previously empty wire object (‘novel cage’). The behavior of the test mouse was recorded for 10 min and assessed for the time spent exploring the known and novel conspecifics.

mCMV [4] = experiment: Vertical pole test; type: in vivo, mouse; conditions: P28-P30; 3 out of 20 infected untreated failed
Experimental: Briefly, mice were individually placed head-downward at the top of a vertical rough-surfaced pole (diameter, 8 mm; height, 55 cm) and allowed to descend in a round of habituation. Then, mice were placed head-upward at the top of the pole. The time required for the animal to descend to the floor was recorded as the locomotor activity time (TLA), with a maximum duration of 120 seconds. If a mouse fell, was unable to turn downward or was unable to climb down, a default locomotor activity time value was recorded as 120 seconds. Each mouse was given three trials with a 30 second-recovery period between trials.

mCMV [5] = experiment: Challenging beam traversal test; type: in vivo, mouse; conditions: P28-P30
mCMV [6] = experiment: Exploratory activity in adapted small open field; type: in vivo, mouse; conditions: P30-40, 3-min session
mCMV [7] = experiment: Hindlimb clasping test; conditions: P28-P30
mCMV [8] = experiment: Viral binding and fusion experiments (4° C./37° C. shift); conditions: 100 μM, NIH/3T3, MOI 0.1, infectivity at 48 hpi
mCMV [9] = conditions: for antiviral activity after drug removal: 24 hrs pre-treatment, compounds removed before virus inoculation; for effect on mCMV infection: cells pre-treated with drug prior to mCMV inoculation; for CMV inhibition with delayed drug addition: compounds added 2 to 12 hours after virus inoculation; for number of infected cells: drug at low concentration (100 μM) present 0-48 hpi, NIH/3T3, MOI 0.1
[10] = cited from earlier work
mCMV [11] = conditions: P2 to P14
mCMV [12] = experiment: Virucidal activity assay on free virions; conditions: 100 μM with undiluted mCMV for 2 hours at 4° C. or 37° C., then diluted to 10 nM
mCMV [13] = experiment: Viral yield reduction assay after short drug exposure; conditions: 100 μM for 2 hrs at viral challenge, supernatants at 72 hpi
hCMV [14] = experiment: hCMV attachment and internalization in human fetal astrocytes by qPCR; conditions: 100 μM
hCMV [15] = experiment: hCMV infectivity assay in human fetal astrocytes; conditions: 100 μM, 1 h pre-treatment, MOI 0.1, 48 hpi
mCMV [16] = type: in vivo, mouse; conditions: for parameters of somatic development: body and tail length, eyelid opening, fur maturation; for CMV load in liver and lungs: treated PND 1 to 10, plaque assay at PND 12
[17] = tested on: Vesicular Stomatitis Virus; conditions: Ornaghi, et al., 2016; cited from earlier work
hCMV [18] = experiment: hCMV virus yield reduction assay in human fetal astrocytes; type: cell-based, human CMV
Source text: In the virus yield reduction assay, after viral adsorption, cells were washed twice with PBS and replenished with fresh medium containing the compounds to be tested. At 72 hpi medium was collected and titered by plaque assay using HDF monolayers to assess the drug-mediated inhibition of virus replication in human fetal brain astrocytes.

CMV IE1/2 promoter = conditions: NIH/3T3, VPD 1 mM for 24 hours, plasmid transfection
Experimental: To investigate the effects on the immediate early phase of viral replication, NIH/3T3 cells exposed to VPD (1 mM) for 24 hours, were transfected with a CMV promoter (IE1/IE2)-driven reporter plasmid (pCMV-tdTomato) expressing the red fluorescent protein tdTomato.

[19] = tested on: Vesicular Stomatitis Virus; type: cell-based, VSV
mCMV [20] = experiment: Ethidium homodimer (EthD-1) cytotoxicity assay of mCMV-infected NIH/3T3 cells; conditions: NIH/3T3, 24 hrs pre-treatment, MOI 0.4, 72 hpi
Sindbis virus (SIN) = type: cell-based

| Molecule | CMV plaque size (mCMV [1]) | effect on human CMV infection (hCMV [2]) | CMV binding to cells (mCMV [8]) | antiviral activity after drug removal (mCMV [9]) | effect on mCMV infection (mCMV [9]) | CMV inhibition with delayed drug addition (mCMV [9]) | number of infected cells (mCMV [9]) | virucidal activity on virions (mCMV [12]) | virus production (mCMV [13]) | parameters of somatic development (mCMV [16]) | CMV load in liver and lungs (mCMV [16]) | further results |
| --- | --- | --- | --- | --- | --- | --- | --- | --- | --- | --- | --- | --- |
| CCC(C)C(C(N)=O)C(C)C (stereo not shown) [SID, 2-isopropyl-3-methylpentanamide] | reduced |  |  |  |  |  |  |  |  |  |  |  |
| CCCC(C(N)=O)C(C)CC (stereo not shown) [SPD, 3-methyl-2-propylpentanamide] | slightly more effective than either valpromide or valnoctamide; also recorded: reduced |  |  |  |  |  |  |  |  |  |  |  |
| CCC(C)C(CC)C(N)=O (stereo not shown) [VCD, 2-ethyl-3-methylpentanamide] | reduced | inhibited | inhibit CMV binding to cells | loss of antiviral activity | inhibited | no inhibition | 50% | No direct inactivation of virions | significantly decreases virus production | markedly improved | markedly decreased | preference for social novelty (mCMV [3]): restored social novelty responses; mice failing the vertical pole test (mCMV [4]): no VCD-treated mice or uninfected controls failed; beam traversal time and number of slips (mCMV [5]): significantly improved the coordination and balance; rearing and nose-poking events (mCMV [6]): Normal levels of exploratory activity were restored; hindlimb clasping response (mCMV [7]): completely reversed this altered behavior; conversion to corresponding free acid (valnoctic acid) ([10]; in vivo): little conversion; acquisition of neurological milestones in infected pups (mCMV [11]): timely acquisition of neurological milestones; decrease of virus bound to the cell surface versus control (hCMV [14]; 4° C.): 60%; CMV fusion/internalization (hCMV [14]; 37° C.): did not appear to block CMV fusion/internalization; hCMV infectivity (GFP-positive cells) (hCMV [15]): substantially decreased hCMV infectivity; antiviral effect on vesicular stomatitis virus [17]: no antiviral effect; reduction in viral titer (hCMV [18]; 100 μM VCD versus vehicle): approximately 100 fold; viral titer (hCMV [18]; 100 μM VCD, MOI 0.1, vehicle 4.92×10^5±5.84×10^4): 6.31×10^3±3.06×10^3 PFU/ml |
| CCCC(CCC)C(N)=O [VPD, 2-propylpentanamide] | reduced | inhibited human CMV infection | inhibit CMV binding to cells | loss of antiviral activity | robust dose-dependent inhibitory effect | no inhibition | 50% | No direct inactivation of virions | significantly decreases virus production | markedly improved | markedly decreased | fraction metabolized to VPA ([10]; humans): > 80%; number of red (tdTomato) cells compared to control (CMV IE1/2 promoter): 96%±4%; VSV infection compared to control [19]: 101%±5%; viral-mediated cell death / cell survival (mCMV [20]): increased cell survival; SIN infection compared to control (Sindbis virus (SIN)): 107%±3% |
| ivermectin |  |  |  |  |  |  |  |  |  |  |  | CMV infection compared to control (mCMV [9]; ivermectin used at 1 μM, CMV type not stated): 99%±9% |
